Paper PMC10367051, “Comprehensive Mechanistic View of the Hydrolysis of Oxadiazole-Based Inhibitors by Histone Deacetylase 6 (HDAC6)” (ACS Chemical Biology, 2023)

Key:
zHDAC6 (Y745F) = biological target: T1, zHDAC6 (Y745F) (Danio rerio, UniProt F8W4B7, Y745F); test: Inhibition assay, zebrafish HDAC6 catalytic DD2 domain, Y745F mutant; assay type: biochemical
T1 construct: Danio rerio HDAC6 (amino acids 440–798; zHDAC6); His (N, cleaved yes); MBP (N, cleaved yes); made in house; host or cells: RIPL Escherichia coli
T1 sequence (F8W4B7 440-798 Y745F): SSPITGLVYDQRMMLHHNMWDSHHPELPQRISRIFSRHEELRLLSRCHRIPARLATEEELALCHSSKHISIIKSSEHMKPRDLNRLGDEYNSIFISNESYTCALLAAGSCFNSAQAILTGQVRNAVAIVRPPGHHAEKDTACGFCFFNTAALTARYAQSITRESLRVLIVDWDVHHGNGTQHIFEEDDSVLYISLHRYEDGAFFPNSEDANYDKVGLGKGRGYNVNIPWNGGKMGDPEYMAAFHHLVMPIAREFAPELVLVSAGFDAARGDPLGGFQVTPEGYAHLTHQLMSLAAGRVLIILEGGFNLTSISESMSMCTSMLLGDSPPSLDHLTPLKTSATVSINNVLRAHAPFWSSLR
Method: The second catalytic domain of Danio rerio HDAC6 (amino acids 440–798; zHDAC6) was expressed in RIPL Escherichia coli as described previously using the pEC566-zHDAC6 expression vector.[16],[38] Briefly, bacteria were incubated at 37 °C with shaking (250 rpm) until the optical density reached an OD600 = 0.5. Then, the culture was cooled to 18 °C for 1 h, and recombinant protein expression was induced by the addition of 75 μM isopropyl β-D-1-thiogalactopyranoside together with 200 μM ZnSO4. The culture was grown at 18 °C for an additional 18 h and harvested by centrifugation at 5500g for 15 min. The cell pellet was resuspended in the lysis buffer (50 mM phosphate, 300 mM NaCl, 10% glycerol, and 20 mM imidazole at pH 8; 5 mL g^–1 bacterial pellet) and lysed by three passages through EmulsiFlex (Avestin). Cell lysates were centrifuged (15,000g at 4 °C for 20 min), and the fusion protein in the supernatant was purified via Ni-NTA chromatography. Fractions containing the His-MBP-HDAC6 fusion were concentrated to 2 mg mL^–1 and cleaved overnight by the addition of TEV protease (zHDAC6/TEV 1:20 ratio). The cleaved tag and the TEV protease were sequentially removed using amylose (New England Biolabs) and HisTrap columns (Cytiva), and zHDAC6 was further purified by size-exclusion chromatography on a HiLoad Superdex 75 pg column (GE Healthcare Bio-Sciences). Fractions containing zHDAC6 were pooled, concentrated to 10 mg mL^–1, flash-frozen in liquid nitrogen, and stored at −80 °C. The purity of protein preparations was monitored by SDS-PAGE (Figure S2).
The zHDAC6 mutants (Y745F and H574A) were constructed using the Quick-change site-directed mutagenesis protocol with the pEC566-zHDAC6 expression plasmid as a template. Both mutants were expressed and purified as described above for wild-type zHDAC6 (Figure S2).
Optimized fluorometric assays were used to determine inhibition constants of studied compounds against individual HDAC isoforms as described previously.[32] Briefly, reactions were performed in the activity buffer comprising 50 mM HEPES, 140 mM NaCl, and 10 mM KCl at pH 7.4 supplemented with 1 mg mL^–1 bovine serum albumin (BSA), 1 mM tris(2-carboxyethyl)phosphine (TCEP), 10 μM substrates, and optimized concentrations of HDACs. The Ac-Gly-Ala-[Lys-Ac]-7-amino-methylcoumarylamide (AMC) substrate was used to profile HDACs 1, 2, 3, and 6; Boc-[Lys-TFA]-7-amino-methylcoumarylamide was used for HDACs 4, 5, 7, 8, and 9 (both substrates: Bachem); fluorescein-labeled N8-acetylspermidine was used for HDAC10;[32] and an internally quenched TNFα-derived peptide derivative was used for HDAC11.[39] Deacetylation reactions were monitored either by high-performance liquid chromatography (HPLC) (HDAC10) or by quantification of released AMC (λex/λem = 365/440 nm) using a CLARIOstar plate reader (BMG Labtech GmbH).

HDAC10 = biological target: T2, HDAC10 (Homo sapiens, UniProt Q969S8); test: HDAC10 inhibition assay (HPLC readout); assay type: biochemical; details: purified human protein, fluorescein-labeled N8-acetylspermidine substrate, 15 min preincubation
T2 construct: made in house; host or cells: HEK293/T17
T2 sequence (Q969S8 1-669): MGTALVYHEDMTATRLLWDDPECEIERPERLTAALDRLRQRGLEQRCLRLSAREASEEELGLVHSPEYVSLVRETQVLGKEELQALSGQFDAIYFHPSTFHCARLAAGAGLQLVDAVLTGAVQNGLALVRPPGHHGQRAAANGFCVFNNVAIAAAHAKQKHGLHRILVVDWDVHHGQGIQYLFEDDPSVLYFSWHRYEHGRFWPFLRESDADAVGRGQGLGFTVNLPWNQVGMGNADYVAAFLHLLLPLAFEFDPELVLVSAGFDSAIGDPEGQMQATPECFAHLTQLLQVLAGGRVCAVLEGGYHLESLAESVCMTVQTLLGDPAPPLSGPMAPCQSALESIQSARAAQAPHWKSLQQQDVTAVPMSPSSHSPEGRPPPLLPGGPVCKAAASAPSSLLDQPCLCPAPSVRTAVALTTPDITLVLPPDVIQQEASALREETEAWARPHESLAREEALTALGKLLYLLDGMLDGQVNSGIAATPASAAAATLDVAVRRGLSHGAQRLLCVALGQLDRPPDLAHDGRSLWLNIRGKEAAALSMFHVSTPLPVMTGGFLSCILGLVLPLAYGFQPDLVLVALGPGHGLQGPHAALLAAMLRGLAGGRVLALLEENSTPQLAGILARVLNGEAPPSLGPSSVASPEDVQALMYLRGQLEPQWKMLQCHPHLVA
Method: Large-scale expression of recombinant human HDACs was carried out as described previously.[32],[37] Briefly, HEK293/T17 cells were transiently transfected with expression pMM222 plasmids comprising N-terminally tagged (TwinStrep-FLAG-HALO tag; Figure S1) HDAC genes using linear poly(ethyleneimine) (PEI, Polysciences Inc.). Cells were harvested three days post-transfection, and cell pellets were resuspended in the lysis buffer (100 mM Tris-HCl, 10 mM NaCl, 5 mM KCl, 2 mM MgCl2, and 10% glycerol at pH 8.0). Cells were disrupted by sonication, cell lysates were cleared by centrifugation, and soluble fusion proteins were first purified by Streptactin affinity chromatography (IBA). For all HDACs but HDACs 1, 10, and 11, the N-terminal tag was cleaved off overnight by the addition of TEV protease (10:1 HDAC/TEV ratio). […]
Optimized fluorometric assays were used to determine inhibition constants of studied compounds against individual HDAC isoforms as described previously.[32] […] Deacetylation reactions were monitored either by high-performance liquid chromatography (HPLC) (HDAC10) or by quantification of released AMC (λex/λem = 365/440 nm) using a CLARIOstar plate reader (BMG Labtech GmbH).

`CS(=O)(=O)N(Cc1ccc(C(=O)NN)cn1)c1cccc(Cl)c1` [compound 4] was tested, and the IC50 (zHDAC6 (Y745F)) was over 50 µM.
`CS(=O)(=O)N(Cc1ccc(C(=O)NNC(=O)C(F)(F)F)cn1)c1cccc(Cl)c1` [compound 5] gave an IC50 (zHDAC6 (Y745F)) of over 20 µM.
Work on `CS(=O)(=O)N(Cc1ccc(-c2nnc(C(F)F)o2)cn1)c1cccc(Cl)c1` [compound 8] yielded an IC50 (HDAC10) of over 20 µM and an IC50 (zHDAC6 (Y745F)) of 0.075 ± 0.026 µM.
Work on `CS(=O)(=O)N(Cc1ccc(-c2nnc(C(F)(F)F)o2)cn1)c1cccc(Cl)c1` [compound 7] yielded an IC50 (HDAC10) of over 20 µM and an IC50 (zHDAC6 (Y745F)) of 0.311 ± 0.15 µM.
`CS(=O)(=O)N(Cc1ccc(C(=O)NNC(=O)C(F)F)cn1)c1cccc(Cl)c1` [compound 6] gave an IC50 (zHDAC6 (Y745F)) of over 50 µM.
